# Assay results published in US9149465B2, “Isoxazolines as inhibitors of fatty acid amide hydrolase” (Infinity Pharmaceuticals, Inc., priority 2009, dated 2015).
# Target: T1, human FAAH (Homo sapiens, UniProt O00519)
# T1 construct: host or cells: COS-7 cells, transient transfection; 13,000 g membrane fraction solubilised in 1% Triton X-100
# T1 sequence (O00519 1-579): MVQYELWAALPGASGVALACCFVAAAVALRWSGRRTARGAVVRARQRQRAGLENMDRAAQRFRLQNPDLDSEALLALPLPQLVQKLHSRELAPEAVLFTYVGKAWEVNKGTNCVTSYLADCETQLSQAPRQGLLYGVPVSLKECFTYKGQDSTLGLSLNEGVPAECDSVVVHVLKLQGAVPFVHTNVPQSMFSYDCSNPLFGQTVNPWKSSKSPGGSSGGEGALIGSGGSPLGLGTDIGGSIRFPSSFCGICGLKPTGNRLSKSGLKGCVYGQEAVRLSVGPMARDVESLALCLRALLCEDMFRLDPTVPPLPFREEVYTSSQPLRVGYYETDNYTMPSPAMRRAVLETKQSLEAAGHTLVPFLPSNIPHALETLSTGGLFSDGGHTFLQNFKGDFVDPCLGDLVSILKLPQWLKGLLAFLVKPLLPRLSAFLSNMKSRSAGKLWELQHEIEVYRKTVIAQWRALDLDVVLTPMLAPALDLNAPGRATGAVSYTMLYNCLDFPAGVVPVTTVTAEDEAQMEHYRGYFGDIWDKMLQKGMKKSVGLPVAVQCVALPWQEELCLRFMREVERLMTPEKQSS
# Assay: Inhibition of human FAAH (AMC arachidonoyl amide fluorescence assay)
# Assay type: biochemical
# Details: inhibitor preincubated 30 minutes at room temperature; 20 μM AMC arachidonoyl amide; 4 hours; read-out: Activity (Ki, inhibitors of human FAAH)
# Protocol: Human FAAH Preparation: COS-7 cells were split the day before, 1:5 into 150 mm x […] cell culture dishes (Corning Inc., Cat. No. 430599). Transient transfection took place at 30-40% confluency according to FuGENE 6 Transfection Reagent (Roche, Cat. No. 11814 443 001).
# Transfection Procedure: The FuGENE transfection 6 reagent (45 uL) was added to 1410 μL of media (DMEM, serum free without pen/strep) in a 15 mL conical tube and incubated at room temp for 5 minutes, followed by the addition of FAAH plasmid DNA (15 μg) (OriGene Cat. No. TC119221, Genbank Accession No. NM_001441.1, 0.67 ug/uL) and a further incubation of 15 minutes at room temperature. The resulting solution was added into one dish of 30-40% confluent COS-7 cells in a drop-wise manner. The COS-7 cell dish was subsequently incubated for 48 hours. The cells are then harvested.
# Harvest procedure: Media was aspirated from the dishes and the cells rinsed with 10 mL PBS. The PBS was removed and 3 mL of PBS added to the dish. The dish was scraped to resuspend the cells, and the subsequent cell suspension collected into a 15 mL conical tube. The cells were pelleted by centrifugation at 1200 rpm for 5 minutes in a bench top centrifuge. PBS was removed and the cell pellet snap frozen in liquid nitrogen and stored at −80° C.
# COS-7 cells —FAAH purification: • (1) Fractionation: Frozen cell pellets from transient transfections were thawed on ice and resuspended in 12.5 mM Hepes pH 8.0, 100 mM NaCl, 1 mM EDTA (10 mL/0.2 g cell pellet). The pellets were dounce homogenized and then sonicated to produce cell extract. The cell extract was subsequently centrifuged at 1000 g to remove cellular debris. The pellet was discarded and the supernatant centrifuged at 13,000 g for 20 minutes. The pellet contained membrane bound FAAH. The supernatant was discarded and the pellet resolubilized. • (2) Re-solubilization: The fraction of interest, (13,000 g, membrane fraction) was re-suspended in 2.3 mL re-suspension buffer (20 mM Hepes pH 7.8, 10% v/v Glycerol, 1 mM EDTA, 1% Triton X-100) and the sample incubated on ice for 1 hour and then centrifuged to remove any particulate matter. The supernatant containing solubilized human FAAH was aliquoted and snap frozen in liquid nitrogen and stored at −80° C. until use. • (3) Characterization: Protein Concentration determined by Bradford assay. • SDS gel and Western blot to confirm presence of FAAH • FAAH activity assay • Km determination-96-well assay • Linear dependence—96-well assay • Standard compound Ki determination—384-well assay
# Human FAAH assay; Experimental Protocol: A 0.1 mg/mL Human FAAH solution was made up in FAAH reaction buffer, and 24 ul pipeted into a 384 well plate. To this was added 1 μL of a 3 fold serially diluted inhibitor from a DMSO stock solution. The FAAH solution and inhibitor were incubated for 30 minutes at room temperature. The FAAH reaction was initiated by the addition of 25 μL of 40 μM AMC Arachidonoyl Amide in FAAH reaction buffer, yielding a final reaction human FAAH preparation concentration of 0.05 mg/ml and AMC-Arachidonoyl substrate concentration of 20 μM, reaction volume 50 μL. The reaction was allowed to proceed for 4 hours at room temperature. The reaction was stopped by the addition of 25 μL 12 μM a-ketoheterocycle (Cayman Chemicals, catalogue #10435). The microtiter plate was read in the envision plate reader.
# The raw fluorescence was plotted on the y axis and the inhibitor concentration on the x axis to give a dose response inhibition curve. The data was fitted to a single site competitive inhibition equation, fixing the Km for the human enzyme to 12 μM and 9 μM respectively.
row,Compound,Ki [nM]
1,BrC1=NO[C@@H](c2ccc(-c3ccccc3)cc2)C1 (racemic) [I-9],≤ 100
2,Cc1nnc(-c2ccc(OC3=NOC(c4ccc(C(F)(F)F)cc4)C3)cn2)o1 (racemic) [I-259],≤ 100
3,CS(=O)(=O)c1ccc(OC2=NO[C@@H](c3ccc(Br)cc3)C2)cn1 (racemic) [I-237],≤ 100
4,Cn1nccc1-c1ccc(OC2=NOC(c3ccc(OC(F)(F)F)cc3)C2)cn1 (racemic) [I-189],≤ 100
5,Cc1nnc(-c2cccc(OC3=NOC(c4ccc(OC(F)(F)F)cc4)C3)c2)o1 (racemic) [I-223],≤ 100
6,Fc1cc([C@H]2CC(Oc3cncnc3)=NO2)ccc1OC(F)(F)F (racemic) [I-121],≤ 100
7,Fc1cc(OC2=NOC(c3ccc(OC(F)(F)F)cc3)C2)cc(-c2nnco2)c1 (racemic) [I-225],≤ 100
8,c1ccc(Oc2ccc(C3CC(Oc4cnc5[nH]ccc5c4)=NO3)cc2)cc1 (racemic) [I-68],≤ 100
9,Cn1cc(-c2ccc(OC3=NOC(c4ccc(C(F)(F)F)cc4)C3)cn2)cn1 (racemic) [I-219],≤ 100
10,CSc1ccc(OC2=NOC(c3ccc(C(F)(F)F)cc3)C2)cn1 (racemic) [I-238],≤ 100
11,"c1ccc(Oc2ccc(C3CC(Oc4ccncc4)=NO3)cc2)cc1 (single isomer, unassigned) [I-36]",≥ 1000
12,CN(C)C(=O)c1ccc(C2CC(Oc3ccc(S(C)(=O)=O)nc3)=NO2)cc1 (racemic) [I-212],100 to 1000
13,c1ccc(Oc2ccc(C3CC(Oc4cnc5ccoc5c4)=NO3)cc2)cc1 (racemic) [I-69],≤ 100
14,CS(=O)(=O)NC(=O)c1ccc(OC2=NOC(c3ccc(OC(F)(F)F)cc3)C2)cn1 (racemic) [I-220],≤ 100
15,"Cc1ccc(Oc2ccc(C3CC(Br)=NO3)cc2)nn1 (single isomer, unassigned) [I-18]",100 to 1000
16,FC(F)(F)Oc1ccc(C2CC(Oc3ccc(-c4cn[nH]c4)nc3)=NO2)cc1 (racemic) [I-165],≥ 1000
17,"COc1ccccc1C1CC(Br)=NO1 (single isomer, unassigned) [I-8]",≥ 1000
18,O=S(=O)(C1=NOC(c2ccc(OC(F)(F)F)cc2)C1)c1ccccc1 (racemic) [I-250],≥ 1000
19,"Fc1cncc(OC2=NOC(c3ccc(Oc4ccccc4)cc3)C2)c1 (single isomer, unassigned) [I-43]",≤ 100
20,CC1(c2ccc(OC(F)(F)F)cc2)CC(Br)=NO1 (racemic) [I-75],≤ 100
21,"ClC1=NOC(c2ccc(Oc3ccccc3)cc2)C1 (single isomer, unassigned) [I-17]",≤ 100
22,CCS(=O)(=O)c1ccc(OC2=NOC(C)(c3ccc(OC(F)(F)F)cc3)C2)cn1 (racemic) [I-196],≤ 100
23,O=C(O)c1ccc(-c2ccc(OC3=NOC(c4ccc(OC(F)(F)F)cc4)C3)cn2)s1 (racemic) [I-193],100 to 1000
24,CCCCc1ccc([C@H]2CC(Oc3cncnc3)=NO2)cc1 (racemic) [I-180],≤ 100
25,CC(=O)Nc1ccc(OC2=NOC(c3ccc(Oc4ccccc4)cc3)C2)cn1 (racemic) [I-94],≤ 100
26,FC(F)(F)Oc1ccc(C2CC(Oc3ccc(-c4cnoc4)nc3)=NO2)cc1 (racemic) [I-194],≤ 100
27,"BrC1=NOC(c2ccc(Oc3cccnc3)cc2)C1 (single isomer, unassigned) [I-12]",≤ 100
28,FC(F)(F)Oc1ccc(C2CC(Oc3cncc(-c4ccccc4)c3)=NO2)cc1 (racemic) [I-72],100 to 1000

row,Compound,Ki [nM]
1,FC(F)(F)Oc1ccc(C2CC(Oc3cccc(-c4nnn[nH]4)c3)=NO2)cc1 (racemic) [I-174],100 to 1000
2,CCCCOc1ccc([C@H]2CC(Oc3ccc(C(=O)OC)nc3)=NO2)cc1 (racemic) [I-137],≤ 100
3,CC1(c2ccc(Oc3ccccc3)cc2)CC(Br)=NO1 (racemic) [I-76],≤ 100
4,FC(F)(F)c1ccc(OC2=NOC(c3ccc(Oc4ccccc4)cc3)C2)cn1 (racemic) [I-56],≤ 100
5,"c1ccc(NC2=NOC(c3ccc(Oc4ccccc4)cc3)C2)cc1 (single isomer, unassigned) [I-32]",≥ 1000
6,CCCCc1ccc(C2CC(Oc3ccc(S(C)(=O)=O)nc3)=NO2)cc1 (racemic) [I-181],≤ 100
7,"BrC1=NOC(CCOc2ccccc2)C1 (single isomer, unassigned) [I-50]",100 to 1000
8,Cn1cc(-c2ccc(OC3=NOC(c4ccc(OC(F)(F)F)cc4)C3)cn2)cn1 (racemic) [I-218],≤ 100
9,c1ccc(-c2ccc([C@H]3CC(Oc4cncnc4)=NO3)cc2)cc1 (racemic) [I-103],≤ 100
10,Fc1ccc([C@H]2CC(Br)=NO2)cc1 (racemic) [I-2],100 to 1000
11,C#CCOc1ccc([C@H]2CC(Oc3ccc(C(=O)OC)nc3)=NO2)cc1 (racemic) [I-144],≤ 100
12,"COc1cccc(C2CC(Br)=NO2)c1 (single isomer, unassigned) [I-7]",100 to 1000
13,Cc1cc(-c2ccc(OC3=NOC(c4ccc(OC(F)(F)F)cc4)C3)cn2)n(C)n1 (racemic) [I-190],≤ 100
14,CC1(c2ccc(OC(F)(F)F)cc2)CC(Oc2ccc(-c3nccs3)nc2)=NO1 (racemic) [I-164],≤ 100
15,FC(F)(F)C1(c2ccc(Oc3ccccc3)cc2)CC(Oc2cncnc2)=NO1 (racemic) [I-131],≤ 100
16,"Clc1cccc(C2CC(Br)=NO2)c1 (single isomer, unassigned) [I-4]",100 to 1000
17,"BrC1=NOC(COCCc2ccccc2)C1 (single isomer, unassigned) [I-52]",100 to 1000
18,CC1(c2ccc(OC(F)(F)F)cc2)CC(Oc2cccnc2)=NO1 (racemic) [I-88],100 to 1000
19,COC(=O)c1ccc(C2CC(Br)=NO2)cc1 (racemic) [I-74],≤ 100
20,C#CCOc1ccc([C@H]2CC(Oc3cncnc3)=NO2)cc1 (racemic) [I-143],100 to 1000
21,FC(F)(F)Oc1ccc(C2CC(Sc3ccccc3)=NO2)cc1 (racemic) [I-248],≥ 1000
22,c1cncc(OC2=NOC(c3ccc(Oc4cccnc4)cc3)C2)c1 (racemic) [I-87],≤ 100
23,CCS(=O)(=O)c1ccc(OC2=NOC(c3ccc(OC(F)(F)F)cc3)C2)cn1 (racemic) [I-182],≤ 100
24,O=C(c1ccc([C@H]2CC(Br)=NO2)cc1)N1CCCCC1 (racemic) [I-208],≤ 100
25,O=C(O)CNC(=O)c1ccc(OC2=NOC(c3ccc(OC(F)(F)F)cc3)C2)cn1 (racemic) [I-106],≤ 100
26,"FC(F)(F)Oc1ccc(C2CC(Br)=NO2)cc1 (racemic) [I-14, 3-bromo-5-(4-(trifluoromethoxy)phenyl)-4,5-dihydroisoxazole]",≤ 100
27,CC1(c2ccc(OC(F)(F)F)cc2)CC(Oc2ccc(F)c(-c3nnco3)c2)=NO1 (racemic) [I-227],≤ 100
